Reference: patent US20250034139A1, “AMINE COMPOUNDS HAVING ANTI-INFLAMMATORY, ANTIFUNGAL, ANTIPARASITIC, AND ANTICANCER ACTIVITY” (PHARMA CINQ, LLC, priority 2013, published 2025)
Converted amounts (≈) assume the structure as drawn. Read-outs that look alike come from different tables or passages of the source.

What was measured:
[1] = test system: Cryptococcus neoformans (serotype A); test: Example L: Cryptococcus neoformans (serotype A) growth inhibition; type: cell-based; details: Cryptococcus neoformans; for MIC: read-out: MIC, uM (concentration for maximum - 99% of inhibition)
Procedure: Cryptococcus neoformans (serotype A) were plated in 96 well plates with 144 μl/well of 5×10e5 CFU/ml in YPD growth medium. Diluted compounds were then added to each well with concentration ranged from 0.05 to 10 μM as final concentration in duplicates. The plates were inoculated at 30° C. Two readings of OD at 600 nm were measured after 18 hr and […] treatments.
C12-imidazol had relative weak activity against Cryptococcus serotype A at low concentration. Data plotted was based on 26 hour reading because 18 hour reading was too low.
• 1. Pick a single colony of Cryptococcus from the Sabouraud Dextrose agar plate using the inoculum loop and inoculate into a 125 ml flask containing 25 ml of YPD growth medium • 2. Incubate at 30° C. with shaking at 220 rpm for 24 hours with loosen lid to allow air in and facilitates growth. • 3. Examine an aliquot of the culture under a microscope for yeast cell morphology and lack of bacterial contamination. • 4. Dilute the overnight culture with YPD medium at 1:100 dilution and count the number of cells as 8×10^6 cfu/ml. • 5. Make a final concentration of cells suspension at 5×10^5 cfu/ml in YPD medium after the stock culture had been stored at 4° C. for 3 days. • 6. Plate 144 μl/well of 5×10^5 cfu/ml cell suspension on 96-well plates. Part-II: Cryptococcus Growth Inhibition Testing with Compounds • 1. From 10 mM DMSO stock solutions, make serial dilutions of compounds to 0.0013, 0.0025, 0.0125, 0.025, 0.05, 0.125 and 0.25 mM solution • 2. Add 6 ul each of diluted compound solutions per well in duplicates. The final concentrations were 0, 0.05, 0.1, 0.5, 1.0, 2.0, 5.0 and 10 micromolar. • 3. Incubated all plates at 30° C. overnight with 175 rpm shaking. • 4. Read absorbance at OD600 after 18 and 26 hours for each plate. • 5. Calculated the % inhibition and IC50 of each compound against the untreated cell.

[2] = test system: Aspergillus fumigatus strains; test: Example N: MIC and MFC (CLSI) against Aspergillus fumigatus; type: cell-based; parameters: MIC at 50% inhibition: unit not given here; details: for MIC50 / MIC: Aspergillus fumigatus; for MIC: read-out: MIC 100%; for MFC: range over Aspergillus fumigatus strains, in 48 hr; for cidal activity (MFC within 4 dilutions of the MIC), in words: 3 strains
Procedure: (§1) The objective of this study was to determine the antifungal activity of eight experimental compounds against a representative panel of fungal isolates, including Candida albicans, C. glabrata, Cryptococcus neoformans, Trichophyton rubrum, Aspergillus fumigatus, and Rhizopus spp. Antifungal activity was measured by minimum inhibitory concentration (MIC) and minimum fungicidal concentration (MFC).
(§2) Three recent clinical strains of each species, taken from the culture collection at the Center for Medical Mycology, Case Western University, were tested.
(§3) Compounds in powder form were dissolved in DMSO. Serial dilutions of each compound were then prepared in RPMI-1640 in a range of […].
(§4) MIC testing was performed according to the CLSI M27-A3 and M38-A2 standards for the susceptibility testing of yeasts and filamentous fungi, respectively (1, 2). Test isolates were subcultured from frozen slants onto potato dextrose agar plates (Trichophyton rubrum was subcultured onto oatmeal plates for conidia production) and checked for purity. Inocula were then prepared in RPMI-1640 (YNB for Cryptococcus) to a concentration of 0.5-2.5×10^3 colony-forming units (CFU)/ml or 0.4-5×10^4 conidia/ml for yeast and filamentous fungi, respectively.
(§5) MFC determinations were performed according to the modifications previously described by Canton et al. and Ghannoum and Isham. (3, 4) Specifically, the total contents of each clear well from the MIC assay were subcultured onto potato dextrose agar. To avoid antifungal carryover, the aliquots were allowed to soak into the agar and then were streaked for isolation once dry, thus removing the cells from the drug source.

Candida albicans strains = test: Example N: MIC and MFC (CLSI) against Candida albicans; type: cell-based; parameters: MIC at 50% inhibition / MIC at 100% inhibition: unit not given here; details: for MIC / MFC: Candida albicans, three clinical strains; for MIC: read-out: MIC 100%, Range
Procedure: as §1, §2, §3, §4, §5

THP-1 cells = test: Example C: compound screen, viable THP-1 cell count after 5 hours +/- LPS; type: cell-based, Human; details: for ability to inactivate pro-inflammatory THP-1 cells, in words (relative to benchmark AC): LPS-treated THP-1 cells
Source text: Background: THP-1 is a human acute myeloid leukemia (AML) cell line that can be induced into a macrophage-like cell with vitamin-D3 (vit-D3). In the macrophage, LPS (lipopolysaccharide; endotoxin) stimulation of toll-like receptor 4 (TLR-4) leads to NF-κB activation and secretion of inflammatory cytokines but also the priming of programmed death pathways through RIP and Caspase 8. The balance of this complex regulatory network is dependent on highly specific kinases, enzymes that require ATP. Disruption of either cytosolic pH or ATP availability/energy level uncouples this control network and the can macrophage shift away from production of inflammatory cytokines towards a programmed death event, which has the net effect of limiting inflammatory damage.

[3] = read-out: IC50, uM (concentration for 50% of inhibition), OD of 26 hour reading, 30° C., XLfit
[4] = OD of 26 hour reading, 30° C., XLfit
[5] = Macrophage, direct inhibition, values of the earlier study (Table 25), read-out: IC50 value (μM) for inhibition of fungal growth, No macrophages

Compound | IC50 [1, 3] | MIC [1, 4] | MIC50 ([2]; 24 h) | MIC ([2]; 24 h) | MIC50 ([2]; 48 h) | MIC ([2]; 48 h) | MFC [2] | MIC (Candida albicans strains; 24 hr) | MIC (Candida albicans strains; 48 hr) | MFC (Candida albicans strains; 48 hr) | Reduction in viable THP-1 cell count (percent change) from 0 hours, Mean ± SE (THP-1 cells; Compound (0.1 μM), No LPS) | Reduction in viable THP-1 cell count (percent change) from 0 hours, Mean ± SE (THP-1 cells; Compound (0.1 μM), Plus LPS) | Reduction in viable THP-1 cell count (percent change) from 0 hours, Mean ± SE (THP-1 cells; Compound (1.0 μM), No LPS) | Reduction in viable THP-1 cell count (percent change) from 0 hours, Mean ± SE (THP-1 cells; Compound (1.0 μM), Plus LPS) | ability to inactivate pro-inflammatory THP-1 cells, in words (relative to benchmark AC) (THP-1 cells) | IC50 [1, 5] | further results
CCCCCCOCCCCCCCCNc1ccnc2c(Cl)cccc12 [Compound AX, 8-Chloro-N-[8-(hexyloxy)octyl]quinolin-4-amine] | 0.91 µM | 17.3 µM (≈ 6.76 µg/mL) | 0.12 to 0.25 µg/mL (≈ 0.307 to 0.639 µM) | 0.5 to 1 µg/mL (≈ 1.28 to 2.56 µM) | 1 to 4 µg/mL (≈ 2.56 to 10.2 µM) | 4 to 8 µg/mL (≈ 10.2 to 20.5 µM) | > 64 µg/mL | 0.5 to 4 µg/mL (≈ 1.28 to 10.2 µM) | 2 to 4 µg/mL (≈ 5.12 to 10.2 µM) | 4 to 32 µg/mL (≈ 10.2 to 81.8 µM) |  |  |  |  |  |  | 
CCCCCCOCCCCCCCCNc1ccnc2cc(Cl)ccc12 [AW, 7-Chloro-N-[8-(hexyloxy)octyl]quinolin-4-amine] | 1.74 µM | 13.8 µM (≈ 5.38 µg/mL) | 2 to 4 µg/mL (≈ 5.12 to 10.2 µM) | 4 to 8 µg/mL (≈ 10.2 to 20.5 µM) | 8 µg/mL (≈ 20.5 µM) | 16 µg/mL (≈ 40.9 µM) |  | 4 to 8 µg/mL (≈ 10.2 to 20.5 µM) | 8 µg/mL (≈ 20.5 µM) | 8 to 32 µg/mL (≈ 20.5 to 81.8 µM) |  |  |  |  |  |  | 
CCCCCCOc1cccc(CNc2ncnc3ccccc23)c1 [AK, N-[3-(Hexyloxy)benzyl]quinazolin-4-amine] | 0.25 µM | 19.5 µM (≈ 6.54 µg/mL) |  |  |  |  |  |  |  |  |  |  |  |  |  |  | 
CCCCCCOCCCCCCCCCCNc1ccnc2ccccc12 [Compound AL, N-[10-(Hexyloxy)decyl]quinolin-4-amine] | 3.01 µM | 10.5 µM (≈ 4.03 µg/mL) | 2 µg/mL (≈ 5.2 µM) | 2 µg/mL (≈ 5.2 µM) | 2 to 4 µg/mL (≈ 5.2 to 10.4 µM) | 4 µg/mL (≈ 10.4 µM) | 4 to 32 µg/mL (≈ 10.4 to 83.2 µM) | 2 to 4 µg/mL (≈ 5.2 to 10.4 µM) | 2 to 4 µg/mL (≈ 5.2 to 10.4 µM) | 4 to 8 µg/mL (≈ 10.4 to 20.8 µM) |  |  |  |  |  |  | cidal activity (MFC within 4 dilutions of the MIC), in words [2]: cidal against one of the A. fumigatus strains (MRL 28397)
CCCCOCCCCCCCCCCNc1ccnc2ccccc12 [AM, N-(10-Butoxydecyl)quinolin-4-amine] | 1.57 µM | 10.5 µM (≈ 3.75 µg/mL) | 0.5 to 1 µg/mL (≈ 1.4 to 2.8 µM) | 1 to 2 µg/mL (≈ 2.8 to 5.61 µM) | 2 to 4 µg/mL (≈ 5.61 to 11.2 µM) | 4 µg/mL (≈ 11.2 µM) | 4 to 32 µg/mL (≈ 11.2 to 89.7 µM) | 2 to 4 µg/mL (≈ 5.61 to 11.2 µM) | 2 to 4 µg/mL (≈ 5.61 to 11.2 µM) | 4 µg/mL (≈ 11.2 µM) | −5.57 ± 2.67% | −19.80 ± 1.96% | −8.47 ± 3.31% | −44.05 ± 1.38% | higher activity than the active benchmark compound AC | 1.57 µM | cidal activity (MFC within 4 dilutions of the MIC), in words [2]: cidal against one of the A. fumigatus strains (MRL 28397)
c1ccc(Oc2cccc(CNc3ncnc4ccccc34)c2)cc1 [BM, N-(3-Phenoxybenzyl)quinazolin-4-amine] | 0.69 µM | 17.5 µM (≈ 5.73 µg/mL) |  |  |  |  |  |  |  |  | −3.96 ± 0.82% | −25.80 ± 3.26% | −4.18 ± 2.46% | −39.17 ± 2.18% | higher activity than the active benchmark compound AC | 0.69 µM | 
COc1ccc(OCCCCCCCCNc2ncnc3ccccc23)cc1 [AE, N-[8-(4-Methoxyphenoxy)octyl]quinazolin-4-amine] | 0.54 µM | 14.7 µM (≈ 5.59 µg/mL) | 0.12 to 0.5 µg/mL (≈ 0.316 to 1.32 µM) | 0.12 to 1 µg/mL (≈ 0.316 to 2.64 µM) | 0.5 to 2 µg/mL (≈ 1.32 to 5.27 µM) | 1 to 4 µg/mL (≈ 2.64 to 10.5 µM) | > 64 µg/mL | 0.5 to 4 µg/mL (≈ 1.32 to 10.5 µM) | 4 µg/mL (≈ 10.5 µM) | 8 to 64 µg/mL (≈ 21.1 to 169 µM) |  |  |  |  |  |  | MIC at 50% inhibition ([2]; 24 hrs): <0.12-0.5; MIC at 100% inhibition ([2]; 24 hrs): <0.12-1
CCCCCCOc1cccc(CNc2ccnc3ccccc23)c1 [Compound AC, N-[3-(Hexyloxy)benzyl]quinolin-4-amine] |  | 12.6 µM (≈ 4.2 µg/mL) | < 0.12 µg/mL | 0.25 to 0.5 µg/mL (≈ 0.747 to 1.49 µM) | 0.5 to 1 µg/mL (≈ 1.49 to 2.99 µM) | 1 µg/mL (≈ 2.99 µM) |  | 0.12 to 1 µg/mL (≈ 0.359 to 2.99 µM) | 0.5 to 2 µg/mL (≈ 1.49 to 5.98 µM) | 2 µg/mL (≈ 5.98 µM) | −7.48 ± 5.82% | −15.14 ± 2.06% | −9.60 ± 1.96% | −44.25 ± 2.53% |  | 1.15 µM | MIC at 100% inhibition ([2]; 48 hrs): 1 µg/mL (≈ 2.99 µM); cidal activity (MFC within 4 dilutions of the MIC), in words (Candida albicans strains; 3 strains): cidal against 2 of the 3 C. albicans strains tested; MIC at 50% inhibition (Candida albicans strains; 24 hrs): <0.12-0.25; MIC at 100% inhibition (Candida albicans strains; 24 hrs): <0.12-1; MIC at 50% inhibition (Candida albicans strains; 48 hrs): <0.12-1
CCCCCCCCCCNc1ncnc2ccccc12 [Compound AH, N-(Decyl)quinazolin-4-amine] | 0.39 µM | 12 µM (≈ 3.43 µg/mL) | < 0.12 µg/mL | 0.25 to 0.5 µg/mL (≈ 0.876 to 1.75 µM) | 0.25 to 1 µg/mL (≈ 0.876 to 3.5 µM) | 0.25 to 4 µg/mL (≈ 0.876 to 14 µM) | > 64 µg/mL | 0.12 to 4 µg/mL (≈ 0.42 to 14 µM) | 1 to 4 µg/mL (≈ 3.5 to 14 µM) | 4 to 32 µg/mL (≈ 14 to 112 µM) | −9.66 ± 1.34% | −26.55 ± 0.95% | −7.87 ± 0.98% | −35.51 ± 3.90% | higher activity than the active benchmark compound AC | 0.39 µM | 
CCCCCCCCCCNc1ccnc2ccccc12 [Compound AG, N-(Decyl)quinolin-4-amine] | 2.14 µM | 11.4 µM (≈ 3.23 µg/mL) | 0.5 to 1 µg/mL (≈ 1.76 to 3.52 µM) | 1 µg/mL (≈ 3.52 µM) | 1 to 2 µg/mL (≈ 3.52 to 7.03 µM) | 1 to 2 µg/mL (≈ 3.52 to 7.03 µM) |  | 0.5 to 2 µg/mL (≈ 1.76 to 7.03 µM) | 1 to 4 µg/mL (≈ 3.52 to 14.1 µM) | 2 to 4 µg/mL (≈ 7.03 to 14.1 µM) | −6.24 ± 0.69% | −21.28 ± 1.52% | −4.02 ± 2.83% | −38.58 ± 0.73% | higher activity than the active benchmark compound AC |  | cidal activity (MFC within 4 dilutions of the MIC), in words [2]: cidal against one of the A. fumigatus strains (MRL 28397)
c1ccc(Oc2cccc(CNc3ccnc4ccccc34)c2)cc1 [AF, N-(3-Phenoxybenzyl)quinolin-4-amine] |  |  |  |  |  |  |  |  |  |  | −8.99 ± 2.00% | −27.32 ± 4.69% | −6.02 ± 2.31% | −44.82 ± 2.46% | higher activity than the active benchmark compound AC |  | 
